Calls of active or inactive are those of the source. The rule behind the calls is not given here.
Assays:
[1] = molecular target: Sigma non-opioid intracellular receptor 1 (Cavia porcellus, UniProt Q60492); assay: Displacement of [3H]-(+)-pentazocine from sigma1 receptor in guinea pig brain membrane assessed as inhibition constant measured after 120 mins by scintillation counting method; assay type: cell membranes
[2] = molecular target: T1, Glutamate receptor ionotropic, NMDA 2B (Homo sapiens, UniProt Q05586+Q13224); assay: Displacement of [3H]ifenprodil from human GluN2B expressed in mouse L-M(TK-) cell membrane coexpressing GluN1a assessed as inhibition constant measured after 120 mins by competitive binding assay; assay type: cell membranes
[3] = molecular target: T2, Sigma intracellular receptor 2 (Rattus norvegicus, UniProt Q5U3Y7); assay: Displacement of [3H]di-o-tolylguanidine from sigma2 receptor in rat liver membrane assessed as inhibition constant measured after 120 mins by scintillation counting method; assay type: cell membranes
T2 sequence (Q5U3Y7 whole entry): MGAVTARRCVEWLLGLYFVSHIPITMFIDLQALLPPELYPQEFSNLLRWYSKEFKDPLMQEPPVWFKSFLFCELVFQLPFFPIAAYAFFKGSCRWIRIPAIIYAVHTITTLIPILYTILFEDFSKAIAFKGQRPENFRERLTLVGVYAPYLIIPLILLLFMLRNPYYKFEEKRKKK

[4] = molecular target: T1, Glutamate receptor ionotropic, NMDA 2B; assay: Antagonist activity at GluN2B receptor (unknown origin) expressed in Xenopus oocytes coexpressing GluN1a at -70 mV holding potential in presence of (S)-glutamate/glycine by TEVC analysis; assay type: cell-based, Oocyte
[5] = Metabolic stability in rat liver microsome assessed as intact compound incubated for 90 mins in presence of NADPH by LC-MS analysis; assay type: ADME; settings: liver microsomes, read-out: Stability
[6] = Drug metabolism in rat liver microsome assessed as formation of glucuronide metabolite (2S,3S,4S,5R,6R)-6-(5-((R)-3-(4-benzylpiperidin-1-yl)-1-hydroxypropyl)-1H-indazol-1-yl)-3,4,5-trihydroxytetrahydro-2H-pyran-2-carboxylic acid in presence of NADPH/UDP-GA by LC-MS analysis; assay type: ADME; settings: microsomes
[7] = molecular target: Glutamate NMDA receptor; GRIN1/GRIN2B (Homo sapiens, UniProt Q05586+Q13224); assay: Antagonist activity at GluN1A/GluN2B receptor (unknown origin) expressed in Xenopus oocytes by voltage clamp method; assay type: cell-based, Oocyte
[8] = Lipophilicity, log D of compound at pH 7.4 by LC-MS analysis; assay type: physicochemical; settings: buffer
[9] = Drug metabolism in rat liver microsome assessed as formation of glucuronide metabolite (2S,3S,4S,5R,6S)-6-(4-(3-(4-(4-fluorobenzyl)piperidin-1-yl)prop-1-yn-1-yl)phenoxy)-3,4,5-trihydroxytetrahydro-2H-pyran-2-carboxylic acid in presence of NADPH/UDP-GA by LC-MS analysis; assay type: ADME; settings: microsomes
[10] = Drug metabolism in rat liver microsome assessed as formation of glucuronide metabolite (2S,3S,4S,5R,6R)-6-(5-((S)-3-(4-benzylpiperidin-1-yl)-1-hydroxypropyl)-1H-indazol-1-yl)-3,4,5-trihydroxytetrahydro-2H-pyran-2-carboxylic acid in presence of NADPH/UDP-GA by LC-MS analysis; assay type: ADME; settings: microsomes
[11] = molecular target: Glutamate receptor ionotropic, NMDA 2B (Homo sapiens) (UniProt Q13224); assay: Antagonist activity at GluN2B receptor (unknown origin) expressed in Xenopus oocytes coexpressing GluN1a at 10 uM at -70 mV holding potential in presence of (S)-glutamate/glycine by TEVC analysis relative to control; assay type: cell-based; settings: Oocyte, filed as antagonist
[12] = molecular target: Glutamate receptor ionotropic, NMDA 2B (Homo sapiens) (UniProt Q13224); assay: Antagonist activity at GluN2B receptor (unknown origin) expressed in Xenopus oocytes coexpressing GluN1a at 1 uM at -70 mV holding potential in presence of (S)-glutamate/glycine by TEVC analysis; assay type: cell-based; settings: Oocyte, filed as antagonist
[13] = Drug metabolism in rat liver microsome assessed as formation of glucuronide metabolite (2S,3S,4S,5R,6S)-6-(4-((1R,2S)-3-(4-benzylpiperidin-1-yl)-1-hydroxy-2-methylpropyl)phenoxy)-3,4,5-trihydroxytetrahydro-2H-pyran-2-carboxylic acid in presence of NADPH/UDP-GA by LC-MS analysis; assay type: ADME; settings: microsomes
[14] = Drug metabolism in rat liver microsome assessed as formation of glucuronide metabolite (2S,3S,4S,5R,6R)-6-(5-(3-(4-(4-fluorobenzyl)piperidin-1-yl)prop-1-yn-1-yl)-1H-indazol-1-yl)-3,4,5-trihydroxytetrahydro-2H-pyran-2-carboxylic acid in presence of NADPH/UDP-GA by LC-MS analysis; assay type: ADME; settings: microsomes

Sigma non-opioid intracellular receptor 1, sequence (Q60492 whole entry): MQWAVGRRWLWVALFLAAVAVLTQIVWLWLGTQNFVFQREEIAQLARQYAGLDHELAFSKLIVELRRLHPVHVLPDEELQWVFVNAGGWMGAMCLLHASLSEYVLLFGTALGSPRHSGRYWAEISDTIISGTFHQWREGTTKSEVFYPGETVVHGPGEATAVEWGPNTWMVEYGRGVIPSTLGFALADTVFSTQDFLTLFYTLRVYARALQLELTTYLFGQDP
T1 sequence (Q13224 whole entry, one chain of several): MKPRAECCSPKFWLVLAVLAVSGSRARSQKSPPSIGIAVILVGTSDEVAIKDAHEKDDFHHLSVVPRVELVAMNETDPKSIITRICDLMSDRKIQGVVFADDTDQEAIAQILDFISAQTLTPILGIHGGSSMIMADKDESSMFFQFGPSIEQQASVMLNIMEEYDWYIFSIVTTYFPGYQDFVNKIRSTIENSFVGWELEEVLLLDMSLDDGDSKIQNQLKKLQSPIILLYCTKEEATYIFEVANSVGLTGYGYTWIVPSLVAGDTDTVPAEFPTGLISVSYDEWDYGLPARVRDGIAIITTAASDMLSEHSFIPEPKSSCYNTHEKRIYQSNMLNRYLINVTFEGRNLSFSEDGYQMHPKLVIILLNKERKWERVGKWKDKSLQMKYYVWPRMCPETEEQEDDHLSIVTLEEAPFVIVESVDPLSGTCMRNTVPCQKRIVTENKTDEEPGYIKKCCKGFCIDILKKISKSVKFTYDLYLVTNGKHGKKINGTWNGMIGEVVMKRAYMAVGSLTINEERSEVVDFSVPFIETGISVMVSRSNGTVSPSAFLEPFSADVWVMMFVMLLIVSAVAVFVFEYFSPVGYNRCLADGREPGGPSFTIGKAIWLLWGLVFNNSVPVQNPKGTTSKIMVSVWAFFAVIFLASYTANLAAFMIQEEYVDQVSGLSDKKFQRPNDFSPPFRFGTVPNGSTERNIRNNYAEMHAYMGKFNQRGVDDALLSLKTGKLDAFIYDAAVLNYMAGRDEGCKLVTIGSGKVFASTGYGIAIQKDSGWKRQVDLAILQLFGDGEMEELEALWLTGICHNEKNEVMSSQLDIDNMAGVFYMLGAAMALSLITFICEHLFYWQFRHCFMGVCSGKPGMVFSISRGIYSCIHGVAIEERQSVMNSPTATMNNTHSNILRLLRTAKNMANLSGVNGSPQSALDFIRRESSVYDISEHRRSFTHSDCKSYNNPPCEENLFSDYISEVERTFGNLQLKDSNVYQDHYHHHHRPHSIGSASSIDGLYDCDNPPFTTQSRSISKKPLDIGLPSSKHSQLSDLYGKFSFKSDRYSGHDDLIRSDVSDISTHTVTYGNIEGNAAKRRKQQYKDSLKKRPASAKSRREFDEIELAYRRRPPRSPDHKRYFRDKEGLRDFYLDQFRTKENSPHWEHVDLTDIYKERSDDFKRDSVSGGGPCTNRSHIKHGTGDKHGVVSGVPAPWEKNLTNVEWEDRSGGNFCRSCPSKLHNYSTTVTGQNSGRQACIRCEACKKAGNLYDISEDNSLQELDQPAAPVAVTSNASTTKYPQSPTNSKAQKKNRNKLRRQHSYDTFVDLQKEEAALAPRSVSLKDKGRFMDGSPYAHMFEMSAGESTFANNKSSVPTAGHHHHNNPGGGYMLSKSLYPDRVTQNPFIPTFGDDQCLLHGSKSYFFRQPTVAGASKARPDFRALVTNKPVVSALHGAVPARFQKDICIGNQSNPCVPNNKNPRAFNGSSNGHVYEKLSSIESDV
Glutamate receptor ionotropic, NMDA 2B (Homo sapiens), sequence (Q13224 27-1484 limits assumed): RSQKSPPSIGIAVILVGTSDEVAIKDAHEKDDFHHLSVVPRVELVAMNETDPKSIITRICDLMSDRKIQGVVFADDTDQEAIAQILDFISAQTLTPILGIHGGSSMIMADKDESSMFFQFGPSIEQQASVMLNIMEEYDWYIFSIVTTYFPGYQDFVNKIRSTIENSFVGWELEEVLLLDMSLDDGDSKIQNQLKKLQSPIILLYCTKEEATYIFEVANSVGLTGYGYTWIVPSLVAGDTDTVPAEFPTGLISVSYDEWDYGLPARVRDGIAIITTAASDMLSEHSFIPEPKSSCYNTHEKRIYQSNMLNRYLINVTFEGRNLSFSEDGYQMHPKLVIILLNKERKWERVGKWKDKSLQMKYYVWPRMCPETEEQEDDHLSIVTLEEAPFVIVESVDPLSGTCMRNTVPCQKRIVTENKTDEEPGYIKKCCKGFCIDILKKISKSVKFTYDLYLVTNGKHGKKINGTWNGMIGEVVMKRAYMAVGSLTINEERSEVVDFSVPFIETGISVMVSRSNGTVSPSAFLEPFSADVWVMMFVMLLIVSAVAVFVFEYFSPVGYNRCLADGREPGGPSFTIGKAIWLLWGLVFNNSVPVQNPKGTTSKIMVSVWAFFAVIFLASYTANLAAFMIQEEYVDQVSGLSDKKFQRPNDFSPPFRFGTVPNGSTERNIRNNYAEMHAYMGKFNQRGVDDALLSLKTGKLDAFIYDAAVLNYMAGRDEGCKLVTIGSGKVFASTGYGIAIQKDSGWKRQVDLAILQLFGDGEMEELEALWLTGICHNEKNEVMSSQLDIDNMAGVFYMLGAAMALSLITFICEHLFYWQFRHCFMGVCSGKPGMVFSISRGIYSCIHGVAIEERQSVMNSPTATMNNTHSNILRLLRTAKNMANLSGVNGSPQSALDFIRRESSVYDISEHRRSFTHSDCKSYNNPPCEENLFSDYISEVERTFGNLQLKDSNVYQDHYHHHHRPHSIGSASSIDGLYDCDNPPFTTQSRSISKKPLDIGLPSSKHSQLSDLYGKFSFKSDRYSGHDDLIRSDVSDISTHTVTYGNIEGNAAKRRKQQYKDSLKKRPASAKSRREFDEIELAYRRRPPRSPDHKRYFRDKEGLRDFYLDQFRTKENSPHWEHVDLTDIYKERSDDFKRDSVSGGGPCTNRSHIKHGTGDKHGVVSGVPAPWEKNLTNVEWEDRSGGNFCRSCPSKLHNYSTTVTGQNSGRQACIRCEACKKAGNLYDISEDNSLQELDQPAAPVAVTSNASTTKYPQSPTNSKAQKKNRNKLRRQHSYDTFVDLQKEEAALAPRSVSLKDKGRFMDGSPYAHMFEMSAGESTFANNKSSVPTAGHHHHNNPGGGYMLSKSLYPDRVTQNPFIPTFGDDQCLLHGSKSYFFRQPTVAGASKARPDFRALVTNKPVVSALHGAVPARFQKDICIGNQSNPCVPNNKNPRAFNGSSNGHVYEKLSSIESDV
Glutamate NMDA receptor; GRIN1/GRIN2B, sequence (Q13224 whole entry, other chains not shown): as the sequence (Q13224 whole entry, one chain of several) above

Row | SMILES | Ki [1] | Ki [2] | Ki [3] | also measured
1 | Fc1ccccc1CC1CCN(CC#Cc2ccc3[nH]ncc3c2)CC1 | 57 nM | 25 nM | 31 nM | –
2 | O=C(CCN1CCC(Cc2ccccc2F)CC1)c1ccc2[nH]ncc2c1 | 17 nM | 20 nM | 19 nM | –
3 | Cn1ncc2cc(C#CCN3CCC(Cc4ccccc4)CC3)ccc21 | 20 nM | 38 nM | 320 nM | –
4 | Cn1cc2cc(C#CCN3CCC(Cc4ccccc4)CC3)ccc2n1 | 23 nM | 136 nM | 63 nM | –
5 | C(=C\c1ccc2[nH]ncc2c1)/CN1CCC(Cc2ccccc2)CC1 | 2.7 nM | 6.6 nM | 10 nM | –
6 | Cn1ncc2cc(C#CCN3CCC(Cc4ccc(F)cc4)CC3)ccc21 | 40 nM | 29 nM | 63 nM | –
7 | Fc1ccc(CC2CCN(C/C=C\c3ccc4[nH]ncc4c3)CC2)cc1 | 77 nM | 42 nM | 97 nM | –
8 | Fc1ccc(CC2CCN(CCCc3ccc4[nH]ncc4c3)CC2)cc1 | 4.2 nM | 13 nM | 14 nM | –
9 | O[C@@H](CCN1CCC(Cc2ccccc2)CC1)c1ccc2[nH]ncc2c1 | 86 nM | 93 nM | 124 nM | IC50 [4]: 72 nM; Drug metabolism [10]: Metabolite_Notdetected; remaining at 1.5 h [5]: ~67%
10 | c1ccc(CC2CCN(CCCc3ccc4[nH]ncc4c3)CC2)cc1 | 7.5 nM | 5.7 nM | 12 nM | inhibition [11]: > 80%; logD [8]: 2.63
11 | Oc1ccc(C#CCN2CCC(Cc3ccccc3)CC2)cc1 | – | – | – | IC50 [7]: 100 nM
12 | OC(CCN1CCC(Cc2ccc(F)cc2)CC1)c1ccc2[nH]ncc2c1 (stereo not given) | 12 nM | 32 nM | 18 nM | logD [8]: 2.02
13 | C[C@@H](CN1CCC(Cc2ccccc2)CC1)[C@@H](O)c1ccc(O)cc1 | – | – | – | Drug metabolism [13]: Metabolite_Detected
14 | OC(CCN1CCC(Cc2ccccc2F)CC1)c1ccc2[nH]ncc2c1 (stereo not given) | 224 nM | 38 nM | 119 nM | –
15 | Cn1cc2cc(C#CCN3CCC(Cc4ccc(F)cc4)CC3)ccc2n1 | 32 nM | 182 nM | 151 nM | –
16 | Fc1ccc(CC2CCN(CC#Cc3ccc4cn[nH]c4c3)CC2)cc1 | 26 nM | 35 nM | 850 nM | –
17 | Fc1ccc(CC2CCN(C/C=C/c3ccc4[nH]ncc4c3)CC2)cc1 | 10 nM | 20 nM | 37 nM | –
18 | C(=C/c1ccc2[nH]ncc2c1)/CN1CCC(Cc2ccccc2)CC1 | 562 nM | 120 nM | 135 nM | –

Now from value to molecule, other results behind:

Row | Ki [1] | Ki [2] | Ki [3] | SMILES | also measured
19 | 21 nM | 56 nM | 51 nM | O=C(CCN1CCC(Cc2ccc(F)cc2)CC1)c1ccc2[nH]ncc2c1 | –
20 | 58 nM | 265 nM | 241 nM | O[C@H](CCN1CCC(Cc2ccccc2)CC1)c1ccc2[nH]ncc2c1 | IC50 [4]: 62 nM; remaining at 1.5 h [5]: ~67%; Drug metabolism [6]: Metabolite_Notdetected
21 | 12 nM | 53 nM | 520 nM | C(#Cc1ccc2cn[nH]c2c1)CN1CCC(Cc2ccccc2)CC1 | –
22 | 26 nM | 11 nM | 11 nM | C(#Cc1ccc2[nH]ncc2c1)CN1CCC(Cc2ccccc2)CC1 | IC50 [7]: 380 nM; logD [8]: 4.17
23 | 36 nM | 12 nM | 37 nM | Oc1ccc(C#CCN2CCC(Cc3ccc(F)cc3)CC2)cc1 | Drug metabolism [9]: Metabolite_Detected; logD [8]: 4.4
24 | 8.8 nM | 18 nM | 18 nM | O=C(CCN1CCC(Cc2ccccc2)CC1)c1ccc2[nH]ncc2c1 | inhibition [11]: > 80%; inhibition [12]: Active; logD [8]: 2.64
25 | 6.6 nM | 13 nM | 13 nM | Fc1ccc(CC2CCN(CC#Cc3ccc4[nH]ncc4c3)CC2)cc1 | logD [8]: 4.35; Drug metabolism [14]: Metabolite_Notdetected
26 | 55 nM | 38 nM | 88 nM | OC(CCN1CCC(Cc2ccccc2)CC1)c1ccc2[nH]ncc2c1 (stereo not given) | inhibition [11]: > 80%; inhibition [12]: Active; logD [8]: 1.75

Reference: ChEMBL document CHEMBL5360654, “Indazole as a Phenol Bioisostere: Structure-Affinity Relationships of GluN2B-Selective NMDA Receptor Antagonists” (J Med Chem, 2023)
